Assay results reported in article PMC8587653 (Molecules, 2021).

Experiments:
[1] = biological target: butyrylcholinesterase (E.C. 3.1.1.8, from horse serum) (Equus caballus, UniProt P81908); test: In vitro butyrylcholinesterase inhibition assay (Ellman's method); format: biochemical; details: for Butyrylcholinesterse (BChE) %inhibition: compounds with <50% inhibition
[2] = biological target: Acetylcholinesterase (E.C.3.1.1.7, from electric eel) (Electrophorus electricus, UniProt O42275); test: biochemical; format: biochemical; details: for IC50: electric eel AChE, pH 7.7, 37 °C, triplicate, read-out: Acetylcholinesterase (AChE) IC50 ± SEM
Chain of Acetylcholinesterase (E.C.3.1.1.7, from electric eel) (O42275 24-633): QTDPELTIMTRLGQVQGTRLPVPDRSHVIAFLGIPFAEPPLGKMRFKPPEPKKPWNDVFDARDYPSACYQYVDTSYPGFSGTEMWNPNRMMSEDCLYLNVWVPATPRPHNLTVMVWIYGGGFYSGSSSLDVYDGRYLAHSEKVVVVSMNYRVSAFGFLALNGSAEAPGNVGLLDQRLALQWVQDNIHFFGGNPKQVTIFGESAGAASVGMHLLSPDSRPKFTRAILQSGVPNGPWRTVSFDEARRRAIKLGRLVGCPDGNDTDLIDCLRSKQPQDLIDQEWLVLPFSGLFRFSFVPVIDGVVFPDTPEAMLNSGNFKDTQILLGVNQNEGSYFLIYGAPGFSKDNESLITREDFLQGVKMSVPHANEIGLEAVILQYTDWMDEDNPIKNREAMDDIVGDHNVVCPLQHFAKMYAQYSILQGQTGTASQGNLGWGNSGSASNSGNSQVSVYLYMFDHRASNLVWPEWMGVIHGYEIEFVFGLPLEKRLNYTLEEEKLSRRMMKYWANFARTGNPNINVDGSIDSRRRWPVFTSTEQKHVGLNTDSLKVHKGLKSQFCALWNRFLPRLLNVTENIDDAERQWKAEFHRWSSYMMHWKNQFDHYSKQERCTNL

acetylcholinesterase = acetylcholinesterase (Electrophorus electricus, UniProt O42275); test: Kinetics studies, mechanism of inhibition (Lineweaver-Burk); format: biochemical, electric eel; details: substrate acetylthiocholine iodide; Vmax not affected, Km increased
Chain of acetylcholinesterase (O42275 24-633): as above
Procedure: Enzyme kinetics were used to determine the mechanism of acetylcholinesterase inhibition. Lineweaver-Burk graph ([…]) were used for the determination of the type of inhibition and analysis of effect of inhibitor on Vmax and Kₘ. The slope Km/Vmax of each line in the Lineweaver-Burk plot was plotted against different concentrations of substrate and chemicals to determine the value of Ki.
Kinetics studies were performed on 5b and 5d with different concentrations of compounds and substrate. Four concentrations of 1 mM compound 5b (0, 0.06, 0.12, 0.18 µM), compound 5d (0, 0.3, 0.6, 0.9 µM) and four concentrations of substrate (0, 0.5, 1.0, 1.5 and 2.0 mM showing 1/S as 0.0, 2.0, 1.0, 0.667 and 0.5, respectively) were made. Both compounds competes with substrate (acetylthiocholine iodide) for binding in the active site of acetylcholinesterase.
Michaelis-Menten kinetics experiments were used to determine the type of enzyme inhibition. […] For this purpose, the initial rates of the enzyme inhibition at four concentrations of substrate (0, 0.5, 1.0, 1.5, 2.0 mM) in the absence and presence of four different concentrations of compound 5b (0, 0.06, 0.12, 0.18 µM) and compound 5d (0, 0.3, 0.6, 0.9 µM) against acetylcholinesterase were measured.

Chain of butyrylcholinesterase (E.C. 3.1.1.8, from horse serum) (P81908 whole entry): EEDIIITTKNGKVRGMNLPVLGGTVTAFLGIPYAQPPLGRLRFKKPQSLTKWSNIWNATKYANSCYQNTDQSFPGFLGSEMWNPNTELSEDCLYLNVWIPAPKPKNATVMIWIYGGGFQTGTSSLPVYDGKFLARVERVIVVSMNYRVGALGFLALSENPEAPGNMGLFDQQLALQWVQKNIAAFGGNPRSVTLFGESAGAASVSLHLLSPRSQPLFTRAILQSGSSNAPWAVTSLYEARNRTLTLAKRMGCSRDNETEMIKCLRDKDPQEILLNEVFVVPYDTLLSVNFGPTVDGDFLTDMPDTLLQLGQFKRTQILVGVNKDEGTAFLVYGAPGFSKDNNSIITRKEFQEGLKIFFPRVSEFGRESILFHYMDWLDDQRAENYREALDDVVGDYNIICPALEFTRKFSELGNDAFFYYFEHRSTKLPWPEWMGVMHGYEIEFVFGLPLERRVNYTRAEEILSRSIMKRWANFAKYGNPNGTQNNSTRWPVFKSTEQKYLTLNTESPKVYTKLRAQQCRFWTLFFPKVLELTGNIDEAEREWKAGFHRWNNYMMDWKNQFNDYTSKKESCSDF

Row | Structure (SMILES) | Butyrylcholinesterse (BChE) %inhibition [1] [%] | IC50 [2] [µM] | IC50 ([1]; horse serum BChE, pH 7.7, 37 °C, triplicate, read-out: Butyrylcholinesterse (BChE) IC50 ± SEM) [µM] | Mode of inhibition of acetylcholinesterase (acetylcholinesterase) | Potency against AChE relative to standard drug galantamine ([2]; ratio of IC50 values vs galantamine) [fold]
1 | Cc1ccc2nc(Cl)c(C=NNC(=S)Nc3ccccc3)cc2c1 [Compound 5h, 2-((2-Chloro-6-methylquinolin-3-yl)methylene)-N-phenylhydrazinecarbothioamide] | 32.6 | 49.3 ± 2.49 | – | – | –
2 | COc1ccc2nc(Cl)c(C=NNC(=S)Nc3ccccc3)cc2c1 [Compound 5g, 2-((2-Chloro-6-methoxyquinolin-3-yl)methylene)-N-phenylhydrazinecarbothioamide] | – | 34.2 ± 1.02 | 11.3 ± 0.67 | – | –
3 | S=C(NN=Cc1cc2ccc(Cl)cc2nc1Cl)Nc1ccccc1 [Compound 5k, 2-((2,7-Dichloroquinolin-3-yl)methylene)-N-phenylhydrazinecarbothioamide] | 20.3 | 47.1 ± 1.45 | – | – | –
4 | S=C(NN=Cc1cc2ccccc2nc1Cl)Nc1ccccc1 [Compound 5f, 2-((2-Chloroquinolin-3-yl)methylene)-N-phenylhydrazinecarbothioamide] | 4.47 | 23.2 ± 1.28 | – | – | –
5 | Cc1ccc2cc(C=NNC(=S)Nc3ccccc3)c(Cl)nc2c1 [Compound 5j, 2-((2-Chloro-7-methylquinolin-3-yl)methylene)-N-phenylhydrazinecarbothioamide] | 16.8 | 46.5 ± 3.12 | – | – | –
6 | S=C(NCCN1CCOCC1)NN=Cc1cc2ccccc2nc1Cl [Compound 5a, 2-((2-Chloroquinolin-3-yl)methylene)-N-(2-morpholinoethyl)hydrazinecarbothioamide] | 3.32 | 2.95 ± 0.24 | – | – | –
7 | COc1ccc2cc(C=NNC(=S)Nc3ccccc3)c(Cl)nc2c1 [Compound 5i, 2-((2-Chloro-7-methoxyquinolin-3-yl)methylene)-N-phenylhydrazinecarbothioamide] | 24.0 | 60.9 ± 6.57 | – | – | –
8 | S=C(NCCN1CCOCC1)NN=Cc1cc2ccc(Cl)cc2nc1Cl [Compound 5e, 2-((2,7-Dichloroquinolin-3-yl)methylene)-N-(2-morpholinoethyl)hydrazinecarbothioamide] | 1.88 | 10.5 ± 0.16 | – | – | –
9 | COc1ccc2nc(Cl)c(C=NNC(=S)NCCN3CCOCC3)cc2c1 [Compound 5b, 2-((2-Chloro-6-methoxyquinolin-3-yl)methylene)-N-(2-morpholinoethyl)hydrazinecarbothioamide] | 8.12 | 0.12 ± 0.02 | – | competitive inhibition | 5
10 | COc1ccc2cc(C=NNC(=S)NCCN3CCOCC3)c(Cl)nc2c1 [Compound 5c, 2-((2-Chloro-7-methoxyquinolin-3-yl)methylene)-N-(2-morpholinoethyl)hydrazinecarbothioamide] | 1.33 | 5.53 ± 0.11 | – | – | –
11 | Cc1ccc2cc(C=NNC(=S)NCCN3CCOCC3)c(Cl)nc2c1 [Compound 5d, 2-((2-Chloro-7-methylquinolin-3-yl)methylene)-N-(2-morpholinoethyl)hydrazinecarbothioamide] | 1.52 | 0.55 ± 0.01 | – | competitive inhibition | –
